According to US10647686B2, “Substituted pyrimidines for preventing or treating cancer and inflammatory diseases” (KOREA RESEARCH INSTITUTE OF CHEMICAL TECHNOLOGY, priority 2016, dated 2020):

Key:
DRAK2 = DRAK2 (Homo sapiens (Human), UniProt O94768); experiment: DRAK2 kinase activity inhibition (ADP-Glo, MRCL3 peptide substrate); type: biochemical; conditions: for DRAK2 selectivity (DRAK2 versus DRAK1): from Table 4
Method: (§1) DRAK1 and DRAK2 recombinant proteins were purchased from SignalChem Inc. To measure the kinase enzyme activity, the ADP-Glo™ kit provided by Promega Inc. was used. Buffer A used in the kinase reaction was composed of 60 mM Tris-Cl (pH 7.5), 30 mM MgCl2 and 0.15% BSA. Just before the experiment, 1 mM DTT was prepared by diluting 1 M solution and added thereto.
(§2) To measure the DRAK1 and DRAK2 activity, the substrate MRCL3 peptide and ATP were mixed with the enzymes. After an appropriate period of time, the reaction product ADP was quantitatively analyzed.
(§3) The buffer solution A was used to make a 3× substrate solution of 3× concentration so that the final concentrations of ATP and MRCL3 peptides were 1 uM, respectively, and 2.5 μl of each solution was dispensed into Optiplate 384 (perkin-elmer) microplate.
(§4) The final concentrations of ATP and MRCL3 peptide were made to be 1 uM respectively by using buffer A, followed by preparing a 3× substrate solution. The prepared substrate solution was distributed in Optiplate 384 (Perkin-Elmer) microplate (2.5 ul/well). Then, the compounds of Examples 1˜39 and the compounds of Comparative Examples 1-6, whose concentrations were tripled by the final concentration were distributed thereto (2.5 ul/well). Lastly, DRAK1 or DRAK2 enzyme solution, properly diluted by using buffer A, was added thereto (2.5 ul/well). Centrifugation was performed at 800 rpm for 1 minute, and then enzyme reaction was induced at 30° C.
(§5) 2 hours later, the enzyme reaction was terminated. To eliminate residual ATP, ADP-Glo™ reagent contained in ADP-Glo™ was added to each well at the concentration of 7.5 ul, which was the same amount as the sum of the previously added reagents, followed by centrifugation at the same RPM and time as the above. Additional reaction was induced at room temperature for 40 minutes. To convert the ADP produced by the kinase activity to ATP, 15 ul of kinase detection buffer was added to each well, followed by centrifugation. Five minutes after the centrifugation was completed, the luminescence value of the reaction product was determined using Envision, and the enzyme activity inhibition effect of the compound was measured. Then, IC50 of each compound was determined using Prism program.
(§6) The compounds of Example 1 and Example 19 were used as the experimental group and the compound of Comparative Example 6 was used as the control.
To evaluate DRAK2 inhibition activity of the compound represented by formula 1 according to the number of n, the experiment was performed with the compounds of Example 1, Example 19, Example 40, Comparative Example 7 and W Comparative Example 8 by the same manner as described in Experimental Example 1, leading to the measurement of IC50 to DRAK2.

DRAK1 = DRAK1 (Homo sapiens (Human), UniProt Q9UEE5); experiment: DRAK1 kinase activity inhibition (ADP-Glo, MRCL3 peptide substrate); type: biochemical
Method: as §1, §2, §3, §4, §5, §6

[1] = Table 3, recombinant enzyme, 1 uM ATP, 1 uM MRCL3 peptide, 30° C., 2 hours
[2] = Table 4, Experimental Example 2, DRAK2 selectivity evaluation
[3] = Table 5, Experimental Example 3, according to the number of n

Sequence of DRAK2 (O94768 whole entry): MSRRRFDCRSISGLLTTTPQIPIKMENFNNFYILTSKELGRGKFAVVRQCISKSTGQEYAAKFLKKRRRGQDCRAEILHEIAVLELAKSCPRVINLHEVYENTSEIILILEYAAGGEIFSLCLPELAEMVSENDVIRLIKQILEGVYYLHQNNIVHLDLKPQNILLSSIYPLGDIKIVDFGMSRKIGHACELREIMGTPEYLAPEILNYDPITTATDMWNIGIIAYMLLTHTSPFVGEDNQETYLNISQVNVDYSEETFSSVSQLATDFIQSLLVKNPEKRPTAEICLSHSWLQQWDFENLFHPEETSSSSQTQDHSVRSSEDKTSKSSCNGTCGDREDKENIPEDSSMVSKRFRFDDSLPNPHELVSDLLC
Sequence of DRAK1 (Q9UEE5 whole entry): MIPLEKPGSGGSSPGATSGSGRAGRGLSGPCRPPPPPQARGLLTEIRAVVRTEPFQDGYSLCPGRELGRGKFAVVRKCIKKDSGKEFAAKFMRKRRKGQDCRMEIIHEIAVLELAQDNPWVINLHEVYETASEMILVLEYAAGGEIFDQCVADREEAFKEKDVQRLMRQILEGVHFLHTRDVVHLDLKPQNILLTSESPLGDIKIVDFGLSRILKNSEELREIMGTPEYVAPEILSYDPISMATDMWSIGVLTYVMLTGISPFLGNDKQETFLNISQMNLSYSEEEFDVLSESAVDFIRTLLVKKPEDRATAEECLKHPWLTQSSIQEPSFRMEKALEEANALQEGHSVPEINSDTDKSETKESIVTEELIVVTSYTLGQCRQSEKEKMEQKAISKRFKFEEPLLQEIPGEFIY

Structure (SMILES) | IC50 (DRAK2; [1]) | further results
NCCCNc1nc(Nc2ccc(Cl)cc2)ncc1F [Comparative Example 1, N4-(3-aminopropyl)-N2-(4-chlorophenyl)-5-fluoropyrimidine-2,4-diamine, reference compound] | 300 nM | –
NCCCNc1nc(Nc2ccc(Cl)cc2)ncc1C(F)(F)F [Comparative Example 2, N4-(3-aminopropyl)-N2-(4-chlorophenyl)-5-(trifluoromethyl)pyrimidine-2,4-diamine, reference compound] | 120 nM | –
COc1cnc(Nc2ccc(Cl)cc2)nc1NCCCN [Comparative Example 3, N4-(3-aminopropyl)-N2-(4-chlorophenyl)-5-methoxypyrimidine-2,4-diamine, reference compound] | 870 nM | –
NCCCNc1ccnc(Nc2ccc(Cl)cc2)n1 [Comparative Example 4, N4-(3-aminopropyl)-N2-(4-chlorophenyl)pyrimidine-2,4-diamine, reference compound] | 1100 nM | –
NCCCNc1nc(Nc2ccc(Cl)cc2)ncc1[N+](=O)[O-] [Comparative Example 5, N4-(3-aminopropyl)-N2-(4-chlorophenyl)-5-nitropyrimidine-2,4-diamine, reference compound] | 320 nM | –
NCCCNc1nc(Nc2ccc(Cl)cc2)ncc1Br [Comparative Example 6, reference compound] | 27 nM | IC50 (DRAK1; [1]): 40 nM; IC50 (DRAK1; [2]): 40 nM; IC50 (DRAK2; [2]): 27 nM; DRAK2 selectivity (DRAK2 versus DRAK1) (DRAK2; result in words): displayed both DRAK1 and DRAK2 inhibition activity
NCCNc1nc(Nc2ccc(Cl)cc2)ncc1Cl [Comparative Example 7, N4-(2-aminoethyl)-5-chloro-N2-(4-chlorophenyl)pyrimidine-2,4-diamine, reference compound] | – | IC50 (DRAK2; [3]): 110 nM
Cc1cnc(Nc2ccc(Cl)cc2)nc1NCCN [Comparative Example 8, N4-(2-aminoethyl)-N2-(4-chlorophenyl)-5-methylpyrimidine-2,4-diamine, reference compound] | – | IC50 (DRAK2; [3]): 140 nM
NCCCNc1nc(Nc2ccc(Cl)cc2)ncc1Cl [Example 1, N4-(3-aminopropyl)-5-chloro-N2-(4-chlorophenyl)pyrimidine-2,4-diamine] | 38 nM | IC50 (DRAK1; [1]): 410 nM; IC50 (DRAK1; [2]): 410 nM; IC50 (DRAK2; [2]): 38 nM; IC50 (DRAK2; [3]): 32 nM; DRAK2 selectivity (DRAK2 versus DRAK1) (DRAK2; result in words): excellent DRAK2 selectivity; DRAK2 IC50 compared with Comparative Examples 7 and 8 (n is 0) (DRAK2; result in words, from Table 5): significantly lower IC50
NCCCNc1nc(Nc2cc(Cl)cc(Cl)c2)ncc1Cl [Example 2, N4-(3-aminopropyl)-5-chloro-N2-(3,5-dichlorophenyl)pyrimidine-2,4-diamine] | 26 nM | –
CC(C)c1ccc(Nc2ncc(Cl)c(NCCCN)n2)cc1 [Example 3, N4-(3-aminopropyl)-5-chloro-N2-(4-isopropylphenyl)pyrimidine-2,4-diamine] | 11 nM | IC50 (DRAK1; [1]): 240 nM
CCCCCc1ccc(Nc2ncc(Cl)c(NCCCN)n2)cc1 [Example 4, N4-(3-aminopropyl)-5-chloro-N2-(4-pentylphenyl)pyrimidine-2,4-diamine] | 80 nM | –
CCCCCCCCc1ccc(Nc2ncc(Cl)c(NCCCN)n2)cc1 [Example 5, N4-(3-aminopropyl)-5-chloro-N2-(4-octylphenyl)pyrimidine-2,4-diamine] | 740 nM | –
Cc1ccc(Nc2ncc(Cl)c(NCCCN)n2)cc1Cl [Example 6, N4-(3-aminopropyl)-5-chloro-N2-(3-chloro-4-methylphenyl)pyrimidine-2,4-diamine] | 24 nM | IC50 (DRAK1; [1]): 220 nM
NCCCNc1nc(Nc2ccc(F)c(Cl)c2)ncc1Cl [Example 7, N4-(3-aminopropyl)-5-chloro-N2-(3-chloro-4-fluorophenyl)pyrimidine-2,4-diamine] | 70 nM | IC50 (DRAK1; [1]): 200 nM
NCCCNc1nc(Nc2ccc(Cl)c(Cl)c2)ncc1Cl [Example 8, N4-(3-aminopropyl)-5-chloro-N2-(3,4-dichlorophenyl)pyrimidine-2,4-diamine] | 59 nM | IC50 (DRAK1; [1]): 310 nM
NCCCNc1nc(Nc2ccc(F)cc2)ncc1Cl [Example 9, N4-(3-aminopropyl)-5-chloro-N2-(4-fluorophenyl)pyrimidine-2,4-diamine] | 19 nM | IC50 (DRAK1; [1]): 290 nM
NCCCNc1nc(Nc2ccc(Oc3ccccc3)cc2)ncc1Cl [Example 10, N4-(3-aminopropyl)-5-chloro-N2-(4-phenoxyphenyl)pyrimidine-2,4-diamine] | 26 nM | IC50 (DRAK1; [1]): 180 nM

Structure (SMILES) | IC50 (DRAK2; [1]) | further results
CCc1ccc(Nc2ncc(Cl)c(NCCCN)n2)cc1 [Example 11, N4-(3-aminopropyl)-5-chloro-N2-(4-ethylphenyl)pyrimidine-2,4-diamine] | 44 nM | IC50 (DRAK1; [1]): 370 nM
CCCCCCc1ccc(Nc2ncc(Cl)c(NCCCN)n2)cc1 [Example 12, N4-(3-aminopropyl)-5-chloro-N2-(4-hexylphenyl)pyrimidine-2,4-diamine] | 56 nM | IC50 (DRAK1; [1]): 1900 nM
NCCCNc1nc(Nc2ccc(C3CCNCC3)cc2)ncc1Cl [Example 26, N4-(3-aminopropyl)-5-chloro-N2-(4-(piperidine-4-yl)phenyl)pyrimidine-2,4-diamine] | 19 nM | –
Cc1ccc(Nc2ncc(C)c(NCCCN)n2)cc1Cl [Example 27, N4-(3-aminopropyl)-N2-(3-chloro-4-methylphenyl)-5-methylpyrimidine-2,4-diamine] | 98 nM | –
Cc1cnc(Nc2ccc(F)cc2)nc1NCCCN [Example 28, N4-(3-aminopropyl)-N2-(4-fluorophenyl)-5-methylpyrimidine-2,4-diamine] | 190 nM | –
Cc1cnc(Nc2ccc(N3CCNCC3)cc2)nc1NCCCN [Example 29, N4-(3-aminopropyl)-5-methyl-N2-(4-(piperazine-1-yl)phenyl)pyrimidine-2,4-diamine] | 100 nM | –
Cc1cnc(Nc2ccc3c(c2)CCCC3)nc1NCCCN [Example 30, N4-(3-aminopropyl)-5-methyl-N2-(5,6,7,8-tetrahydronaphthalene-2-yl)pyrimidine-2,4-diamine] | 160 nM | –
Cc1cnc(Nc2ccc(F)c(C(F)(F)F)c2)nc1NCCCN [Example 31, N4-(3-aminopropyl)-N2-(4-fluoro-3-(trifluoromethyl)phenyl)-5-methylpyrimidine-2,4-diamine] | 180 nM | –
Cc1cnc(Nc2ccc(Br)c(C(F)(F)F)c2)nc1NCCCN [Example 32, N4-(3-aminopropyl)-N2-(4-bromo-3-(trifluoromethyl)phenyl)-5-methylpyrimidine-2,4-diamine] | 1400 nM | –
Cc1cnc(Nc2ccc(Oc3ccccc3)cc2)nc1NCCCN [Example 33, N4-(3-aminopropyl)-5-methyl-N2-(4-phenoxyphenyl)pyrimidine-2,4-diamine] | 490 nM | –
Cc1cnc(Nc2ccc(S(=O)(=O)c3ccc([N+](=O)[O-])cc3)cc2)nc1NCCCN [Example 34, N4-(3-aminopropyl)-5-methyl-N2-(4-(4-nitrophenylsulfonyl)phenyl)pyrimidine-2,4-diamine] | 340 nM | –
Cc1cnc(Nc2ccc(Br)cc2)nc1NCCCN [Example 35, N4-(3-aminopropyl)-N2-(4-bromophenyl)-5-methylpyrimidine-2,4-diamine] | 89 nM | –
Cc1cnc(Nc2ccc3c(c2)OCCO3)nc1NCCCN [Example 36, N4-(3-aminopropyl)-N2-(2,3-dihydrobenzo[b][1,4]dioxin-6-yl)-5-methylpyrimidine-2,4-diamine] | 110 nM | –
Cc1ccc(Nc2ncc(C)c(NCCCN)n2)cc1C [Example 37, N4-(3-aminopropyl)-N2-(3,4-dimethylphenyl)-5-methylpyrimidine-2,4-diamine] | 82 nM | –
Cc1cnc(Nc2ccc(F)c(Cl)c2)nc1NCCCN [Example 38, N4-(3-aminopropyl)-N2-(3-chloro-4-fluorophenyl)-5-methylpyrimidine-2,4-diamine] | 35 nM | –
Cc1cnc(Nc2ccc(Cl)c(Cl)c2)nc1NCCCN [Example 39, N4-(3-aminopropyl)-N2-(3,4-dichlorophenyl)-5-methylpyrimidine-2,4-diamine] | 75 nM | –
NCCCCNc1nc(Nc2cc(Cl)cc(Cl)c2)ncc1Cl [Example 41, N4-(4-n-aminobutyl)-N2-(3,5-dichlorophenyl)-5-chloropyrimidine-2,4-diamine] | 31 nM | –
